Test results from patent US10023836B2, “Medium for yeasts” (YAMAGUCHI UNIVERSITY, priority 2012, dated 2018).
Counter-ions that a name gives are not always drawn.

Tests used:
[1] = system: Candida glabrata BY23876 strain; test: Nutritional requirements in AYD culture medium (FIG. 50); format: cell-based; details: component eliminated from AYD culture medium
Protocol: In a case where no special provisions are made, a procedure for a cultivation experiment using the culture medium to be investigated for proliferation was such that a yeast undergoing investigation was pre-cultured in a YPD liquid culture medium at 28° C. for 24 hours, after which the yeast was adjusted such that OD600=20. Thereafter, 5 μL of culture solution was inoculated in 5 mL of each culture medium to be investigated, which had been dispensed into L-shaped test tubes (final OD60=0.02); aerobic roller tube culture was performed at 28° C.; and OD was continuously measured with an automatic spectrophotometer (BioPhoto recorder TVS062CA, […]). In addition, OD600 was measured every 15 minutes by a spectrophotometer (Cell density meter co8000, WPA). Hereafter, data is represented by graphs for a case using the automatic spectrophotometer; however, these graphs are primarily used to compare the slope of logarithmic growth phase proliferation curves for each culture medium, and because OD600 is measured without dilution, values where OD600=3 to 3.5 or more may be incorrect.
Nutritional requirements of each of the following yeast strains were investigated in the AYD culture medium, and utility of the AYD culture medium was confirmed. Each of the yeast strains was cultured under identical conditions using the basic culture method described above.

RAK3599 strain [2] = test: Vitamin and FeCl3 concentration in AKD′ culture medium (FIGS. 22 to 28); format: cell-based, Saccharomyces cerevisiae; details: for proliferation at a content of 0: AKD′ culture medium without the substance
Protocol: (§1) In a case where no special provisions are made, a procedure for a cultivation experiment using the culture medium to be investigated for proliferation was such that a yeast undergoing investigation was pre-cultured in a YPD liquid culture medium at 28° C. for 24 hours, after which the yeast was adjusted such that OD600=20. […] In addition, OD600 was measured every 15 minutes by a spectrophotometer (Cell density meter co8000, WPA). Hereafter, data is represented by graphs for a case using the automatic spectrophotometer; however, these graphs are primarily used to compare the slope of logarithmic growth phase proliferation curves for each culture medium, and because OD600 is measured without dilution, values where OD600=3 to 3.5 or more may be incorrect.
Pyridoxine concentration in the AKD′ culture medium was adjusted to 0, 0.004, 0.04, 0.4, 4, and 40 μg/mL, respectively, and proliferation of the RAK3599 strain was investigated.
Pantothenic acid concentration in the AKD′ culture medium was adjusted to 0, 0.004, 0.04, 0.4, 4, and 40 μg/mL, respectively, and proliferation of the RAK3599 strain was investigated.
Thiamine concentration in the AKD′ culture medium was adjusted to 0, 0.004, 0.04, 0.4, 4, and 40 μg/mL, respectively, and proliferation of the RAK3599 strain was investigated.
Nicotinic acid concentration in the AKD′ culture medium was adjusted to 0, 0.004, 0.04, 0.4, 4, and 40 μg/mL, respectively, and proliferation of the RAK3599 strain was investigated.
Myo-inositol concentration in the AKD′ culture medium was adjusted to 0, 0.02 μg/mL, 0.2 μg/mL, 2 μg/mL, 20 μg/mL, and 200 μg/mL, respectively, and proliferation of the RAK 3599 strain was investigated.
FeCl3 concentration in the AKD′ culture medium was adjusted to 0, 0.002, 0.02, 0.2, 2, and 20 μg/mL, respectively, and proliferation of the RAK3599 strain was investigated.

[3] = system: Candida utilis JCM9624 strain; test: Nutritional requirements in AYD culture medium (FIG. 51); format: cell-based; details: component eliminated from AYD culture medium
Protocol: as §1
(§2) Each of the yeast strains was cultured under identical conditions using the basic culture method described above.

[4] = system: Candida albicans JCM1542 strain; test: Nutritional requirements in AYD culture medium (FIG. 52); format: cell-based; details: component eliminated from AYD culture medium
Protocol: as §1, §2

RAK2683 yeast strain [5] = test: Candidate proliferation factors added to BM culture medium (FIG. 4); format: cell-based, Saccharomyces cerevisiae; details: 24 hours
Protocol: Next, the yeast extract (M<5000) was further fractionated and proliferation was tested. […] As the substances having a molecular weight of roughly 500<M<1000, Acetyl-CoA, CoA, yeast RNA (RNA), and NAD were selected; each was added to a BM culture medium; and RAK2683 yeast strain was cultivated for 24 hours, after which OD600 was measured. Moreover, the yeast extract (YE)-added culture medium and YPD culture medium were treated as positive controls.

RAK2683 yeast strain [6] = details: glucose not added to BM culture medium; 2% ethanol, 2% glycerol or 0.1 to 2% albumin; 24 hours
Protocol: OD600 was measured after RAK2683 yeast strain had been cultivated for 24 hours in a culture medium in which between 0.1 and 2% albumin had been added to the BM culture medium.

[7] = system: Saccharomyces cerevisiae RAK3599 strain; test: Glutamine, cysteine and amino acid groups in AYD′ / AYD culture medium (FIGS. 40, 41); format: cell-based
Protocol: For the AYD′ culture medium, an investigation was conducted into glutamine and cysteine concentrations using Saccharomyces cerevisiae RAK3599 strain.

RAK3599 strain [8] = test: Investigation with AID and aY-AID culture medium (FIGS. 29 to 39); format: cell-based, Saccharomyces cerevisiae; details: AID culture medium, up to 1% or up to 0.2500%
Protocol: As shown in the following, an investigation was conducted into concentrations of each amino acid and a substitution potential of pantothenic acid for the amino acid in the AID culture medium. A suitable YPD culture medium was used as a control.
Next, the amino acids asparagine, isoleucine, phenylalanine, and valine were each adjusted to a culture medium additive concentration of […], 0.0312%, 0.0625%, 0.1250%, and 0.2500%, and OD600 was measured after 24 hours.
Isoleucine concentration in the aY-AID culture medium was adjusted to 0, 0.01 mg/mL, 0.1 mg/mL, 0.5 mg/mL, and 1 mg/mL, respectively, and proliferation of the RAK3599 strain was investigated.
Phenylalanine concentration in the aY-AID culture medium was adjusted to 0, 0.01, 0.1, 0.5, and 1 mg/mL, respectively, and proliferation of the RAK3599 strain was investigated.
Valine concentration in the aY-AID culture medium was adjusted to 0, 0.01, 0.1, 0.5, and 1 mg/mL, respectively, and proliferation of the RAK3599 strain was investigated.
Serine concentration in the AID culture medium was adjusted to 0, 0.01 mg/mL, 0.1 mg/mL, 0.5 mg/mL, and 1 mg/mL, respectively, and proliferation of the RAK3599 strain was investigated.
Threonine concentration in the AID culture medium was adjusted to 0, 0.01, 0.1, 0.5, and 1 mg/mL, respectively, and proliferation of the RAK3599 strain was investigated.
Asparagine concentration in the AID culture medium was adjusted to 0, 0.01, 0.1, 0.5, and 1 mg/mL, respectively, and proliferation of the RAK3599 strain was investigated.
An investigation was conducted into vitamins contained in the AID culture medium. […]

[9] = system: commercially available baker's yeast; test: Investigation of carbon source added instead of glucose in BM culture medium (FIG. 5); format: cell-based; details: 2% added singly instead of glucose in BM culture medium, 28° C., 24 hours
Protocol: OD600 was measured after commercially available baker's yeast had been cultivated at 28° C. for 24 hours in a culture medium in which 2% of sugars such as galactose, raffinose, trehalose, fructose, maltose, mannose, sucrose, and ribose, or DNA (negative control) had been added instead of glucose in the BM culture medium.

RAK2683 yeast strain [10] = test: Investigation of nitrogen source used singly in MM culture medium instead of ammonium sulfate (Table 4); format: cell-based, Saccharomyces cerevisiae; details: Table 4 conditions
[11] = system: Saccharomyces cerevisiae histidine-requiring BY4714 (his3Δ1) strain; test: Histidine concentration in AKD culture medium (FIG. 17); format: cell-based
Protocol: Histidine concentration in the AKD culture mediums was adjusted to 0.001%, 0.01%, 0.1%, and 1%, respectively, and proliferation of a Saccharomyces cerevisiae histidine-requiring BY4714 (his3Δ1) strain was investigated. A maximum value was reached between 0.01% and […]. OD600 for 1/100 solutions after 42 hours was 0.07, 0.18, 0.18, and 0.15, respectively. Given the above-noted results, a preferred histidine concentration was understood to be around 0.01%.

## Cc1ncc(C[n+]2csc(CCO)c2C)c(N)n1 [thiamine, Thiamine hydrochloride]
[1]
  nutritional requirement of the strain: require
RAK3599 strain [2]; AKD′ culture medium
  preferred concentration: around 400 μg/L
RAK3599 strain [2]
  proliferation at a content of 0: A fair degree of proliferation
[3]
  nutritional requirement of the strain: require

## O=S(=O)([O-])[O-].[Zn+2] [Zn2+, zinc sulfate]
[3]
  nutritional requirement of the strain: preferable for proliferation
[4]
  nutritional requirement of the strain: preferable for proliferation

## Cc1ncc(CO)c(CO)c1O.Cl [pyridoxine, Pyridoxine hydrochloride]
[1]
  nutritional requirement of the strain: require
RAK3599 strain [2]; AKD′ culture medium
  preferred concentration: around 400 μg/L
RAK3599 strain [2]
  proliferation at a content of 0: A fair degree of proliferation

## CC(=O)SCCNC(=O)CCNC(=O)[C@H](O)C(C)(C)COP(=O)(O)OP(=O)(O)OC[C@H]1O[C@@H](n2cnc3c(N)ncnc32)[C@H](O)[C@@H]1OP(=O)(O)O [Acetyl-CoA]
RAK2683 yeast strain [5]
  proliferation compared with YPD: none of them reaching the proliferation level of YPD

## CCO [ethanol]
RAK2683 yeast strain [6]
  proliferation as carbon source: almost no proliferation

## CC(C)(COP(=O)(O)OP(=O)(O)OC[C@H]1O[C@@H](n2cnc3c(N)ncnc32)[C@H](O)[C@@H]1OP(=O)(O)O)[C@@H](O)C(=O)NCCC(=O)NCCS [CoA]
RAK2683 yeast strain [5]
  proliferation compared with YPD: none of them reaching the proliferation level of YPD

## OCC(O)CO [glycerol]
RAK2683 yeast strain [6]
  proliferation as carbon source: almost no proliferation

## CSCC[C@H](N)C(=O)O [Methionine, L-Methionine]
[7]; amino acid group or individual amino acid of the AY5 group eliminated
  proliferation when eliminated from the AYD culture medium: proliferation decreases
RAK3599 strain [8]
  effect on proliferation when added at high concentrations: proliferation was confirmed to be inhibited

## OC[C@H]1O[C@H](O[C@H]2O[C@H](CO)[C@@H](O)[C@H](O)[C@H]2O)[C@H](O)[C@@H](O)[C@@H]1O [trehalose]
[9]
  proliferation as carbon source: no proliferation whatsoever

## albumin
RAK2683 yeast strain [6]
  proliferation as carbon source: almost no proliferation

## O=C[C@H](O)[C@H](O)[C@H](O)CO [ribose]
[9]
  proliferation as carbon source: no proliferation whatsoever

## N[C@@H](CS)C(=O)O [Cysteine, L-Cysteine]
[7]; AYD′ culture medium
  appropriate concentration: around 0.01 g/L
RAK3599 strain [8]
  effect on proliferation when added at high concentrations: proliferation was confirmed to be inhibited

## O=C(O)c1cccnc1 [nicotinic acid]
[1]
  nutritional requirement of the strain: require
RAK3599 strain [2]; AKD′ culture medium
  concentration at which proliferation reached a maximum value: 4 µg/mL
  concentration at which proliferation was inhibited: 40 µg/mL
  preferred concentration: around 4000 μg/L
RAK3599 strain [2]
  proliferation at a content of 0: A significant degree of proliferation
RAK3599 strain [2]; AKD′ culture medium, nicotinic acid 0 μg/mL
  OD600 after 24 hours: 9
RAK3599 strain [2]; AKD′ culture medium, nicotinic acid 0.004 μg/mL
  OD600 after 24 hours: 10
RAK3599 strain [2]; AKD′ culture medium, nicotinic acid 0.04 μg/mL
  OD600 after 24 hours: 10
RAK3599 strain [2]; AKD′ culture medium, nicotinic acid 0.4 μg/mL
  OD600 after 24 hours: 9
RAK3599 strain [2]; AKD′ culture medium, nicotinic acid 4 μg/mL
  OD600 after 24 hours: 10
RAK3599 strain [2]; AKD′ culture medium, nicotinic acid 40 μg/mL
  OD600 after 24 hours: 8

## Cl.N[C@@H](Cc1c[nH]cn1)C(=O)O.O [Histidine, L-Histidine hydrochloride hydrate]
RAK2683 yeast strain [10]
  proliferation when added singly as nitrogen source: almost no proliferation
[11]
  preferred concentration: around 0.01%
[11]; histidine 0.001%
  OD600 for 1/100 solutions after 42 hours: 0.07
[11]; histidine 0.01%
  OD600 for 1/100 solutions after 42 hours: 0.18
[11]; histidine 0.1%
  OD600 for 1/100 solutions after 42 hours: 0.18
[11]; histidine 1%
  OD600 for 1/100 solutions after 42 hours: 0.15

## NC(=O)CC[C@H](N)C(=O)O [Glutamine, L-Glutamine]
[7]; AYD′ culture medium
  appropriate concentration: 5 g/L
[7]; AYD′ culture medium, glutamine concentration set to 10 times the previous concentration
  growth: growth was confirmed to be extremely improved
RAK3599 strain [8]
  effect on proliferation when added at high concentrations: proliferation was confirmed to be inhibited

## O=C(O)CCCC[C@@H]1SC[C@@H]2NC(=O)N[C@@H]21 [biotin]
[1]
  nutritional requirement of the strain: require
RAK3599 strain [2]; AKD′ culture medium
  concentration at which proliferation was slightly inhibited: 200 µg/L
  preferred concentration: around 2 μg/L
RAK3599 strain [2]
  proliferation at a content of 0: Almost no proliferation
[3]
  nutritional requirement of the strain: not require
[4]
  nutritional requirement of the strain: require

## NC(=O)c1ccc[n+]([C@@H]2O[C@H](COP(=O)([O-])OP(=O)(O)OC[C@H]3O[C@@H](n4cnc5c(N)ncnc54)[C@H](O)[C@@H]3O)[C@@H](O)[C@H]2O)c1 [NAD]
RAK2683 yeast strain [5]
  proliferation compared with YPD: none of them reaching the proliferation level of YPD
